# Measurements taken from patent publication US20260078130A1, “NAMPT MODULATORS, PREPARATIONS, AND USES THEREOF” (SIRONAX LTD., priority 2022, published 2026).
# Read-outs that look alike come from different tables or passages of the source.
# How the values were obtained:
# [1] = tested on: endogenous NAMPT in U2OS cells; test: Cellular NAD+ modulation assay (NAD/NADH-Glo, U2OS cells); format: cell-based; conditions: Homo sapiens; for maximal fold induction: read-out: Cellular Emax
# Summary of the method: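 NAD/NADH-Glo luminescence quantified NAD+ after acid treatment (60 °C, 15 min) and neutralization of DTAB lysates. Beforehand, U2OS cells seeded 16 h earlier received compound concentration series for 24 h at 37 °C. Values given as half-maximal activation concentration (EC50) and maximal fold change versus DMSO (Emax).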
# [2] = biological target: T1, human enzyme NAMPT (full length) (Homo sapiens, UniProt P43490); test: NMN fluorescence biochemical assay (stimulation of NMN synthesis by NAMPT); conditions: for EC50: concentration giving half-maximal activation, read-out: Enzymatic EC50; for Enzymatic Emax: fold change of maximal activation compared to DMSO
# T1 construct: human enzyme NAMPT (full length)
# Summary of the method: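 Full-length human NAMPT (100 nM) was preincubated 15 min at 37 °C with compound in 50 mM Tris-HCl pH 7.5, 10 mM MgCl2, 2 mM DTT, then reacted 1 h at 37 °C with 50 μM NAM, 100 μM PRPP, 4 mM ATP (stated solution concentrations). NMN was derivatised with acetophenone/KOH then formic acid and read at Ex/Em 382/445 nm; EC50 and Emax (fold over DMSO) reported.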
# [3] = 24 hours incubation with compound
# [4] = NMN synthesis by purified human NAMPT (100 nM)
# [5] = 24 hours incubation, cellular NAD+
# [6] = NMN fluorescence assay, purified human NAMPT 100 nM
# T1 sequence (P43490 whole entry): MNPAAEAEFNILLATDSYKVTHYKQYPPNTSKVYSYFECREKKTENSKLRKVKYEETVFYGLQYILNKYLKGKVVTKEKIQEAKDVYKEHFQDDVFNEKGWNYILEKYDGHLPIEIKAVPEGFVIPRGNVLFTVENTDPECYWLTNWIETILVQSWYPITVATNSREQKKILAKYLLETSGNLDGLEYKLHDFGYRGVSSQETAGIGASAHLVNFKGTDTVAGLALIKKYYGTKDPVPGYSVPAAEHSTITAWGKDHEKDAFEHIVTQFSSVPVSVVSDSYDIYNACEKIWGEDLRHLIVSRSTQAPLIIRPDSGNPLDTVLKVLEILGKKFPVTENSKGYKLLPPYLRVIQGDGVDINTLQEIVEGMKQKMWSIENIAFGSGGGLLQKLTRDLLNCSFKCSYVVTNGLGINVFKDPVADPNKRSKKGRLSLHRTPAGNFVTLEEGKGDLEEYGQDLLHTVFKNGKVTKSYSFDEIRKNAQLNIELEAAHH
"EC50 [1, 3] [nM]","EC50 [2, 4] [nM]",Enzymatic Emax [2],"EC50 [1, 5] [nM]","EC50 [2, 6] [nM]",Compound,"maximal fold induction [1, 3]","maximal fold induction [1, 5]"
500 to 5000,≥ 5000,A (A>3),,,"O=C1c2ccccc2C(C2CC2)N1Cc1ccc2[nH]c(=O)oc2c1 (centres unmarked) [Compound 72, 6-((1-cyclopropyl-3-oxoisoindolin-2-yl)methyl)benzo[d]oxazol-2(3H)-one]",> 1.5,
,,B (3≥B>2),< 500,< 500,"Cn1nc(OC(F)F)c(Cl)c1CC1c2ccccc2C(=O)N1Cc1ccc2[nH]nnc2c1 (centres unmarked) [Compound 397, 2-((1H-benzo[d][1,2,3]triazol-5-yl)methyl)-3-((4-chloro-3-(difluoromethoxy)-1-methyl-1H-pyrazol-5-yl)methyl)isoindolin-1-one]",,> 1.5
< 500,< 500,A (A>3),,,"O=C1c2ccccc2C(Cc2ccccc2F)N1Cc1ccc2[nH]c(=O)oc2c1 (centres unmarked) [Compound 146, 6-((1-(2-fluorobenzyl)-3-oxoisoindolin-2-yl)methyl)benzo[d]oxazol-2(3H)-one]",> 1.5,
,,B (3≥B>2),500 to 5000,≥ 5000,"Cn1ncc(Cl)c1CC1c2ccccc2C(=O)N1C/C(F)=C\c1c[nH]nn1 (centres unmarked) [Compound 515, (E)-3-((4-chloro-1-methyl-1H-pyrazol-5-yl)methyl)-2-(2-fluoro-3-(1H-1,2,3-triazol-4-yl)allyl)isoindolin-1-one]",,> 1.5
5000 to 50000,≥ 5000,B (3≥B>2),,,"CC(=O)Nc1ccc(CN2Cc3ccccc3C2=O)cc1 [Compound 104, N-(4-((1-oxoisoindolin-2-yl)methyl)phenyl)acetamide]",> 1.5,
,,A (A>3),500 to 5000,≥ 5000,"COc1ccc(CN2C(=O)c3ccc(C4CC4)cc3C2Cc2c(C)ncnc2C#N)cn1 (centres unmarked) [Compound 640, 5-((6-cyclopropyl-2-((6-methoxypyridin-3-yl)methyl)-3-oxoisoindolin-1-yl)methyl)-6-methylpyrimidine-4-carbonitrile]",,1.2 to 1.5
< 500,< 500,C (2≥C),,,"CC1c2ccccc2C(=O)N1Cc1ccc(NC(=O)NCc2ccncc2)cc1 (centres unmarked) [Compound 291, 1-(4-((1-methyl-3-oxoisoindolin-2-yl)methyl)phenyl)-3-(pyridin-4-ylmethyl)urea]",1.2 to 1.5,
,,B (3≥B>2),500 to 5000,500 to 5000,"Cc1nc(O)sc1CN1C(=O)c2ccccc2C1Cc1c(Cl)cnn1C (centres unmarked) [Compound 635, 3-((4-chloro-1-methyl-1H-pyrazol-5-yl)methyl)-2-((2-hydroxy-4-methylthiazol-5-yl)methyl)isoindolin-1-one]",,> 1.5
< 500,< 500,A (A>3),,,"N#Cc1ccc(CC2c3ccccc3C(=O)N2Cc2ccc3[nH]c(=O)oc3c2)c(F)c1 (centres unmarked) [Compound 199, 3-fluoro-4-((3-oxo-2-((2-oxo-2,3-dihydrobenzo[d]oxazol-6-yl)methyl)isoindolin-1-yl)methyl)benzonitrile]",> 1.5,
,,B (3≥B>2),500 to 5000,500 to 5000,"Cn1ncc(Cl)c1CC1c2ccccc2C(=O)N1Cc1ccc2c(c1)ncn2C (centres unmarked) [Compound 585, 3-((4-chloro-1-methyl-1H-pyrazol-5-yl)methyl)-2-((1-methyl-1H-benzo[d]imidazol-5-yl)methyl)isoindolin-1-one]",,> 1.5
,,B (3≥B>2),< 500,< 500,"Cn1ncc(Cl)c1CC1c2cc(C3COC3)ccc2C(=O)N1Cc1ccc2[nH]nnc2c1 (centres unmarked) [Compound 370, 2-((1H-benzo[d][1,2,3]triazol-5-yl)methyl)-3-((4-chloro-1-methyl-1H-pyrazol-5-yl)methyl)-5-(oxetan-3-yl)isoindolin-1-one]",,> 1.5
,,A (A>3),< 500,500 to 5000,"Cc1noc(Cl)c1CC1c2ccccc2C(=O)N1Cc1ccc2[nH]nnc2c1 (centres unmarked) [Compound 357, 2-((1H-benzo[d][1,2,3]triazol-5-yl)methyl)-3-((5-chloro-3-methylisoxazol-4-yl)methyl)isoindolin-1-one]",,> 1.5
500 to 5000,500 to 5000,A (A>3),,,"CCc1ccc2c(c1)C(=O)N(Cc1ccc(O)cc1)C2=O [Compound 41, 5-ethyl-2-(4-hydroxybenzyl)isoindoline-1,3-dione]",1.2 to 1.5,
,,B (3≥B>2),< 500,500 to 5000,"CN1C[C@]2(C[C@H](CN3C(=O)c4ccccc4[C@@H]3Cc3c(Cl)cnn3C)C2)OC1=O [Compound 551, (2s,4R)-2-(((S)-1-((4-chloro-1-methyl-1H-pyrazol-5-yl)methyl)-3-oxoisoindolin-2-yl)methyl)-7-methyl-5-oxa-7-azaspiro[3.4]octan-6-one]",,> 1.5
,,B (3≥B>2),< 500,< 500,"Cn1nc(C(F)(F)F)c(Cl)c1CC1c2ccccc2C(=O)N1Cc1ccc2[nH]nnc2c1 (centres unmarked) [Compound 362, 2-((1H-benzo[d][1,2,3]triazol-5-yl)methyl)-3-((4-chloro-1-methyl-3-(trifluoromethyl)-1H-pyrazol-5-yl)methyl)isoindolin-1-one]",,> 1.5
500 to 5000,500 to 5000,A (A>3),,,"CC1c2ccccc2C(=O)N1Cc1ccc(O)cc1 (centres unmarked) [Compound 31, 2-(4-hydroxybenzyl)-3-methylisoindolin-1-one]",> 1.5,
,,C (2≥C),500 to 5000,< 500,"CN(C)CCOc1nn(C)c(CC2c3ccccc3C(=O)N2CC2CC3(CNC(=O)O3)C2)c1Cl (centres unmarked) [Compound 523, 2-((1-((4-chloro-3-(2-(dimethylamino)ethoxy)-1-methyl-1H-pyrazol-5-yl)methyl)-3-oxoisoindolin-2-yl)methyl)-5-oxa-7-azaspiro[3.4]octan-6-one]",,> 1.5
< 500,500 to 5000,A (A>3),,,"C#Cc1cccnc1CC1c2ccccc2C(=O)N1Cc1ccc2[nH]c(=O)oc2c1 (centres unmarked) [Compound 215, 6-((1-((3-ethynylpyridin-2-yl)methyl)-3-oxoisoindolin-2-yl)methyl)benzo[d]oxazol-2(3H)-one]",> 1.5,
500 to 5000,≥ 5000,A (A>3),,,"COc1ccc2c(c1)C(C)N(Cc1ccc3[nH]c(=O)oc3c1)C2=O (single isomer, unassigned) [Compound 243]",> 1.5,
5000 to 50000,≥ 5000,A (A>3),,,"NC(=O)c1ccc2c(c1)C(=O)N(Cc1ccc(O)cc1)C2=O [Compound 38, 2-(4-hydroxybenzyl)-1,3-dioxoisoindoline-5-carboxamide]",≤ 1.2,
,,A (A>3),< 500,< 500,"Cn1ncc(Cl)c1CC1c2cccc(F)c2C(=O)N1Cc1ccc2[nH]nnc2c1 (centres unmarked) [Compound 342, 2-((1H-benzo[d][1,2,3]triazol-5-yl)methyl)-3-((4-chloro-1-methyl-1H-pyrazol-5-yl)methyl)-7-fluoroisoindolin-1-one]",,> 1.5
5000 to 50000,≥ 5000,A (A>3),,,"CCCn1c2ccccc2c(=O)n1Cc1ccc(O)cc1 [Compound 25, 2-(4-hydroxybenzyl)-1-propyl-1,2-dihydro-3H-indazol-3-one]",> 1.5,
500 to 5000,500 to 5000,A (A>3),,,"CCc1cccnc1CC1c2ccccc2C(=O)N1Cc1ccc2[nH]c(=O)oc2c1 (centres unmarked) [Compound 182, 6-((1-((3-ethylpyridin-2-yl)methyl)-3-oxoisoindolin-2-yl)methyl)benzo[d]oxazol-2(3H)-one]",> 1.5,
,,A (A>3),< 500,< 500,"Cn1nc(C#N)c(CC2c3ccccc3C(=O)N2Cc2ccc3[nH]nnc3c2)c1Cl (centres unmarked) [Compound 352, 4-((2-((1H-benzo[d][1,2,3]triazol-5-yl)methyl)-3-oxoisoindolin-1-yl)methyl)-5-chloro-1-methyl-1H-pyrazole-3-carbonitrile]",,> 1.5
,,B (3≥B>2),< 500,≥ 5000,"Cn1ncc(Cl)c1CC1c2ccccc2C(=O)N1Cc1c[nH]nn1 (centres unmarked) [Compound 637, 2-((1H-1,2,3-triazol-4-yl)methyl)-3-((4-chloro-1-methyl-1H-pyrazol-5-yl)methyl)isoindolin-1-one]",,1.2 to 1.5
< 500,500 to 5000,B (3≥B>2),,,"Cn1ncc(Cl)c1CC1c2ccccc2C(=O)N1CC1CC2(CNC(=O)O2)C1 (centres unmarked) [Compound 307, 2-((1-((4-chloro-1-methyl-1H-pyrazol-5-yl)methyl)-3-oxoisoindolin-2-yl)methyl)-5-oxa-7-azaspiro[3.4]octan-6-one]",> 1.5,
